# Values of other authors, collected in patent US11793200B2, “Hypochlorous acid disinfectant and its production method” (SUPER AQUA INTERNATIONAL CO., LTD., priority 2019, dated 2023).
# Test system: coliform
# Settings: compared with hypochlorite ion (CLO-); both effective free chlorine; FIG. 2
smiles,measurement,value
"OCl [hypochlorous acid (HCLO), Hypochlorous acid]",sterilization of hypochlorous acid (HCLO) relative to hypochlorite ion (CLO-),80 times
